From ChEMBL document CHEMBL3045589, “Aromatic amino analogues of artemisinin: synthesis and in vivo antimalarial activity” (2010)

test system: Plasmodium yoelii nigeriensis; experiment: Antimalarial activity against Plasmodium yoelii nigeriensis infected in po-dosed Swiss albino mouse assessed as inhibition of parasite growth administered qd for 4 days; format: functional; conditions: 96 h

Row | Structure (SMILES) | ED50 [mg/kg] | ED90 [mg/kg]
1 | C[C@@H]1CC[C@@H]2[C@]34OO[C@](C)(CC[C@@H]13)O[C@H]4OC(Nc1ccc(O)c(CN3CCNCC3)c1)[C@@]2(C)Br (stereo not given in full) | 12.4 | 24.6
2 | CCN1CCN(Cc2cc(NC3O[C@@H]4O[C@@]5(C)CC[C@H]6[C@H](C)CC[C@H]([C@@]46OO5)[C@]3(C)Br)ccc2O)CC1 (stereo not given in full) | 9.83 | 16.6
3 | C[C@@H]1CC[C@@H]2[C@]34OO[C@](C)(CC[C@@H]13)O[C@H]4OC(Nc1ccc(O)c(CN3CCN(c4ccccn4)CC3)c1)[C@@]2(C)Br (stereo not given in full) | 7.9 | 12.2
4 | C[C@@H]1CC[C@@H]2[C@]34OO[C@](C)(CC[C@@H]13)O[C@H]4OC(Nc1ccc(O)c(CN3CCN(Cc4ccccc4)CC3)c1)[C@@]2(C)Br (stereo not given in full) | 7.12 | 12.1
5 | C[C@@H]1CC[C@@H]2[C@]34OO[C@](C)(CC[C@@H]13)O[C@H]4OC(Nc1ccc(O)c(CN3CCN(C)CC3)c1)[C@@]2(C)Br (stereo not given in full) | 9.9 | 17.4
6 | C[C@@H]1CC[C@@H]2[C@]34OO[C@](C)(CC[C@@H]13)O[C@H]4OC(Nc1ccc(O)c(CN3CCCCC3)c1)[C@@]2(C)Br (stereo not given in full) | 11.3 | 23.1
7 | C[C@@H]1CC[C@@H]2[C@]34OO[C@](C)(CC[C@@H]13)O[C@H]4OC(Nc1ccc(O)c(CN3CCN(c4cccc(C(F)(F)F)c4)CC3)c1)[C@@]2(C)Br (stereo not given in full) | 6.01 | 9.28
8 | C[C@@H]1CC[C@H]2[C@@H](C)C(=O)O[C@@H]3O[C@@]4(C)CC[C@@H]1[C@]32OO4 [ARTEMISININ] | 16.4 | 27.1
9 | CCN(CC)Cc1cc(NC2O[C@@H]3O[C@@]4(C)CC[C@H]5[C@H](C)CC[C@H]([C@@]35OO4)[C@]2(C)Br)ccc1O (stereo not given in full) | 12.3 | 24.2
10 | C[C@@H]1CC[C@@H]2[C@]34OO[C@](C)(CC[C@@H]13)O[C@H]4OC(Nc1ccc(O)c(CN3CCN(c4ccccc4)CC3)c1)[C@@]2(C)Br (stereo not given in full) | 5.41 | 8.72
